Where a name gives a salt, the structure may show the parent alone. Read-outs that look alike come from different tables or passages of the source.
How the values were obtained:
[1] = system: Cryptosporidium parvum; assay: qRT-PCR assay of the growth of C. parvum in vitro in HCT-8 host cells (primary and secondary screening, EC50); type: cell-based; conditions: Cryptosporidium parvum, HCT-8; for inhibition at 10 µM: primary screening at 10 uM, read-out: Inhibition (%)
[2] = in vitro; conditions: for cytotoxicity at 41 h, 10 µM: human
[3] = system: HCT-8 host cells (Hs18S)
[4] = primary screening at 10 uM, treated vs control

SMILES | Hs18S ΔCT ([3]; human, 41 h, 10 μM) | inhibition at 10 µM [1] [%] | cytotoxicity at 41 h, 10 µM [2] [%] | cytotoxicity at 10 µM [2] [%] | Hs18S ΔCT [3, 4] | Hs18S ΔCT [3] | inhibition at 3.3 µM ([1]; secondary screening at 3.3 uM, read-out: % Inhibition (3.3 uM)) [%]
COc1c2ccoc2c(OC)c2oc(=O)ccc12 [ISOPIMPINELLIN] | -0.24 | -23.2 | -18.1 |  |  |  | 
COc1cc2c(cc1OC)[C@@H]1C(=O)c3ccc4oc(C(C)C)cc4c3O[C@@H]1CO2 [ISOROTENONE] |  | 2.53 |  | 38.9 | 0.71 |  | 
COc1cc(O)c2c(=O)c(O)c(-c3ccccc3)oc2c1 [IZALPININ] | 0.18 | 18.4 | 11.5 |  |  |  | 
O=C(O)/C=C/C=C/c1ccccc1 [JUAREZIC ACID] | -0.57 | -55.9 | -48.4 |  |  |  | 
O=C1C=CC(=O)c2c(O)cccc21 [JUGLONE] |  | -17.7 |  | 11.2 |  | 0.17 | 
O=c1c(O)c(-c2ccc(O)cc2)oc2cc(O)cc(O)c12 [KAEMPFEROL] | 0.54 | 19.8 | 31.2 |  |  |  | 
C=C(C)[C@H]1CN[C@H](C(=O)O)[C@H]1CC(=O)O [KAINIC ACID] |  | -19.9 |  | -2.6 | -0.04 |  | 
NC[C@H]1O[C@H](O[C@H]2[C@H](O)[C@@H](O[C@H]3O[C@H](CO)[C@@H](O)[C@H](N)[C@H]3O)[C@H](N)C[C@@H]2N)[C@H](O)[C@@H](O)[C@@H]1O [KANAMYCIN A SULFATE] | -0.31 | 29.3 | -23.9 |  |  |  | 
COC1=CC(=O)O[C@@H](/C=C/c2ccccc2)C1 [KAWAIN] |  | 16 |  | -10.9 | -0.15 |  | 
COc1c2occc2c(OC)c2c(=O)cc(C)oc12 [KHELLIN] | 0.22 | -11.8 | 14.1 |  |  |  | 
CC(=O)O[C@H]1C[C@@H](OC(C)=O)C(C)(C)[C@@H]2C[C@@H](OC(C)=O)[C@]3(C)[C@H](CC[C@@]4(C)[C@H](c5ccoc5)OC(=O)[C@H]5O[C@@]534)[C@@]12C [KHIVORIN] | 0.12 | 52.4 | 8 |  |  |  | 
c1coc(CNc2ncnc3[nH]cnc23)c1 [KINETIN] | 0.54 | -42.7 | 31 |  |  |  | 
CC1(C)C[C@@H]2C(=O)CC[C@H]3O[C@]3(C)CC[C@H]21 [KOBUSONE] | 0.01 | -24.4 | 0.5 |  |  |  | 
COc1ccc(-c2coc3cc(O)ccc3c2=O)c(O)c1O [KOPARIN] | -0.02 | 6.05 | -1.6 |  |  |  | 
Nc1ccccc1C(=O)CC(N)C(=O)O (stereo not shown) [KYNURENINE] |  | -14.4 |  | 28.1 | 0.48 |  | 
CC(C)=CCC[C@@H](C)[C@H]1CC[C@@]2(C)C3=C(CC[C@]12C)[C@@]1(C)CC[C@H](O)C(C)(C)[C@@H]1CC3 [LANOSTEROL] | -0.24 | -22.5 | -18.1 |  |  |  | 
CC(C)=CCC1=C(O)C(=O)c2ccccc2C1=O [LAPACHOL] | -0.60 | 91.3 | -52 |  |  |  | -98
O=C1C=C(O)C(=O)c2ccccc21 [LAWSONE] | -0.16 | -46.1 | -12 |  |  |  | 
Cc1cc(OC(=O)c2c(C)cc(O)cc2O)cc(O)c1C(=O)O [LECANORIC ACID] | -0.02 | -20 | -1.2 |  |  |  | 
COC(=O)c1c(C)c2c(c(C)c1O)OC(=O)c1c(C)c(Cl)c(O)c(Cl)c1O2 [LEOIDIN] | 0.41 | 16.7 | 24.9 |  |  |  | 
C=C[C@@](C)(O)CCC=C(C)C [LINALOOL (+)] |  | -23.3 |  | 6.1 | 0.09 |  | 
CC(C)(C#N)O[C@@H]1O[C@H](CO)[C@@H](O)[C@H](O)[C@H]1O [LINAMARIN] |  | 6.23 | 33.5 |  | 0.59 |  | 
C[C@H](CCC(=O)O)[C@H]1CC[C@H]2[C@@H]3CC[C@@H]4C[C@H](O)CC[C@]4(C)[C@H]3CC[C@]12C [LITHOCHOLIC ACID] | 0.65 | -55.8 | 36.1 |  |  |  | 
O=C(O)CCC1NCC2CC1CN1CCCCC21 (stereo not shown) [LUPANYL ACID HYDROCHLORIDE] | 0.09 | 5.4 | 6 |  |  |  | 
C=C(C)[C@@H]1CC[C@]2(C)CC[C@]3(C)[C@H](CC[C@@H]4[C@@]5(C)CC[C@H](O)C(C)(C)[C@@H]5CC[C@]43C)[C@@H]12 [LUPEOL] |  | 41.8 | 3.4 |  | 0.05 |  | 
OC[C@@H]1CCCN2CCCC[C@H]12 [LUPININE] | 0.18 | 26.1 | 11.8 |  |  |  | 
C[C@H]1[C@H](C)CC[C@]2(C(=O)O)CC[C@]3(C)C(=CC[C@@H]4[C@@]5(C)C[C@@H](O)[C@H](O)[C@@](C)(CO)[C@@H]5[C@H](O)C[C@]43C)[C@H]12 [MADECASSIC ACID] |  | -20.3 |  | -11.7 | -0.16 |  | 
CC(C)=CCC/C(C)=C/CC/C(C)=C/CC/C(C)=C/CC1=C(C)C(=O)c2ccccc2C1=O [MENAQUINONE-4] | 0.06 | -13.8 | 4.1 |  |  |  | 

Continued, in another order:

Hs18S ΔCT ([3]; human, 41 h, 10 μM) | SMILES | inhibition at 10 µM [1] [%] | cytotoxicity at 41 h, 10 µM [2] [%] | cytotoxicity at 10 µM [2] [%] | Hs18S ΔCT [3, 4] | Hs18S ΔCT [3] | inhibition at 3.3 µM ([1]; secondary screening at 3.3 uM, read-out: % Inhibition (3.3 uM)) [%]
-0.21 | N[C@@H](Cc1ccc(O)c(O)c1)C(=O)O [LEVODOPA] | -9.67 | -15.4 |  |  |  | 
-0.03 | N[C@@H](Cc1cc(I)c(Oc2cc(I)c(O)c(I)c2)c(I)c1)C(=O)O [LEVOTHYROXINE] | -12.4 | -2.2 |  |  |  | 
-0.12 | CC1(C)O[C@H]2CC(=O)OC[C@]23[C@H]2CC[C@@]4(C)[C@H](c5ccoc5)OC(=O)[C@H]5O[C@]54[C@]2(C)C(=O)C[C@@H]13 [LIMONIN] | 26.2 | -8.4 |  |  |  | 
0.20 | CCCCCc1c2c(cc(O)c1C(=O)O)OC(=O)c1c(cc(OC)cc1C(=O)CCCC)O2 [LOBARIC ACID] | 18.2 | 13.1 |  |  |  | 
0.31 | COC(=O)C(O)c1ccccc1 (stereo not shown) [MANDELIC ACID, METHYL ESTER] | -2.26 | 19.1 |  |  |  | 
0.18 | O=c1c2cc(O)c(O)cc2oc2cc(O)c([C@@H]3O[C@H](CO)[C@@H](O)[C@H](O)[C@H]3O)c(O)c12 [MANGIFERIN] | -3.49 | 11.5 |  |  |  | 
-1.56 | COc1ccc2[nH]cc(CCNC(C)=O)c2c1 [MELATONIN] | -62.2 | -196 |  |  |  | 
-0.18 | OC[C@H]1O[C@@](CO)(O[C@H]2O[C@H](CO)[C@@H](O)[C@H](O)[C@H]2O)[C@@H](O[C@H]2O[C@H](CO)[C@@H](O)[C@H](O)[C@H]2O)[C@@H]1O [MELEZITOSE] | -16.8 | -13 |  |  |  | 
0.49 | CC1=CC(=O)c2ccccc2C1=O [MENADIONE] | -2.86 | 29 |  |  |  | 
-0.20 | CC(C)[C@@H]1CC[C@@H](C)CC1=O [MENTHONE] | 28.9 | -14.5 |  |  |  | 
0.24 | CC(C)[C@@H]1CC[C@@H](C)C[C@H]1OC(=O)c1ccccc1 [MENTHYL BENZOATE] | 1.74 | 15.1 |  |  |  | 
-0.50 | CC1=C2C(O)C(=O)OC3CC4C(C)(C)C(=O)C=C[C@]4(C)C(CC1)[C@]23C (stereo partly shown) [MEROGEDUNIN] | -12.3 | -41.1 |  |  |  | 
0.33 | COc1cc2c(cc1OC)C(=O)OC2 [METAMECONINE] | 24.5 | 20.2 |  |  |  | 
0.16 | COC(=O)c1cc(O)c(=O)c2c(O)c(O)ccc2c1 [METHYL 7-DESHYDROXYPYROGALLIN-4-CARBOXYLATE] | -4.08 | 10.5 |  |  |  | 

From paper PMC6736568, “Discovery of Novel Anti-cryptosporidial Activities From Natural Products by in vitro High-Throughput Phenotypic Screening” (Frontiers in Microbiology, 2019)
